Entries after “also recorded” stand apart in the source; their conditions may differ. Like-named read-outs stand apart in the source and are kept apart here.
Columns and labels:
Aβ42 levels = assay: Aβ42-lowering activity in PS70 cells, sandwich ELISA of conditioned media; details: CHO, 24 h, read-out: IC50 (Aβ42), Aβ42-lowering activity
PSEN1-NTF [1] = target: T1, PSEN1-NTF (Homo sapiens, UniProt P49768); details: N2a-ANPP membranes, cell-free, 0.5 µM AR243 co-incubated with 100 µM competitor
PSEN1-CTF [2] = target: T2, PSEN1-CTF (Homo sapiens, UniProt P49768); assay: Photo-affinity labeling in vitro, N2a-ANPP membrane preparations; assay type: binding; details: N2a-ANPP membranes, 0.25% CHAPSO, 0.5 µM photo-probe, UV
APH-1 = APH-1 (Homo sapiens, UniProt Q96BI3); assay: as above; assay type: binding; details: N2a-ANPP membranes, 0.25% CHAPSO, 0.5 µM photo-probe, UV
PEN-2 = PEN-2 (Homo sapiens, UniProt Q9NZ42); assay: as above; assay type: binding; details: N2a-ANPP membranes, 0.25% CHAPSO, 0.5 µM photo-probe, UV
Nicastrin = Nicastrin (Homo sapiens, UniProt Q92542); assay: as above; assay type: binding; details: N2a-ANPP membranes, 0.25% CHAPSO, 0.5 µM photo-probe, UV
endogenous PSEN1-NTF = target: T3, endogenous PSEN1-NTF (Homo sapiens, UniProt P49768); assay: Photo-affinity labeling in vitro, HEK293T membrane preparations; assay type: binding
T3 construct: host or cells: HEK293T membrane preparations

PSEN1-CTF [3] = target: T2, PSEN1-CTF; assay: Photo-affinity labeling in living N2a-ANPP cells; assay type: cell-based; details: live N2a-ANPP cells, 0.2 µM photo-probe, UV 365 and 302 nm
Procedure: (§1) Subsequently, cells were UV-irradiated on ice for 30 min at 365 nm and for 30 min at 302 nm. As negative controls, UV irradiation was omitted or cells were incubated with DMSO vehicle or compound AR80, which was structurally identical to AR243 but lacked the biotin moiety. Cells were washed and harvested in PBS and incubated with hypotonic buffer (10 mM Tris pH 7.4, 1x protease inhibitor mix) for 10 min on ice. To prepare cellular membranes, cells were passed 10 times through a 30G needle and centrifuged at 800×g, 10 min, 4°C. The post-nuclear supernatant was centrifuged at 18.000×g, 45 min, 4°C. […] The total protein concentration of the membrane preparations was determined by BCA assay, concentrations and volumes of each sample were adjusted, and 5x RIPA buffer was added to a final concentration of 1x RIPA buffer (150 mM NaCl, 1.0% NP-40, 0.5% sodium deoxycholate, 0.1% SDS, […], pH 8.0). […] Protein concentrations were again determined and adjusted to equal levels prior to the addition of streptavidin magnetic beads (Invitrogen). […] The eluted material was separated on 12% Bis-Tris gels and analyzed by Western blotting. Chemiluminescence was recorded with a LAS 3000 ECL camera system (Fuji Photo Film GmbH, Duesseldorf, Germany) or on CL-XPosure film (Fisher Scientific GmbH, Schwerte, Germany).

PSEN1-NTF [4] = target: T1, PSEN1-NTF; assay: Photo-affinity labeling in living N2a-ANPP cells; assay type: cell-based; details: live N2a-ANPP cells, 0.2 µM photo-probe, UV 365 and 302 nm
Procedure: as §1

PSEN1-CTF [5] = target: T2, PSEN1-CTF; assay: Photo-affinity labeling in vitro, HEK293T membrane preparations; assay type: binding; parameters: host or cells: HEK293T membrane preparations
Procedure: as §1, with “Germany). […]” for “Germany).”

Aβ38 levels = Aβ38 levels in PS70 cells, sandwich ELISA of conditioned media; details: CHO cells with wild type APP and PSEN1, increasing concentrations
N2a-ANPP cells = assay: Cell viability, alamarBlue reagent; assay type: cell-based
Procedure: Cell viability was assessed using the alamarBlue® reagent (Invitrogen). N2a-ANPP cells were seeded at low density in 96-well plates (4000 cells/well) and cultured for 24 h. The cells were then treated in duplicates with increasing concentrations of the respective compounds or DMSO as vehicle for an additional 24 h. 20 µl alamarBlue® was added to cells cultured in 200 µl medium and incubated overnight. Absorbance was measured with a Paradigm™ microplate reader at 570 nm, using 600 nm as the reference wavelength, and percent viability of vehicle control was calculated.

PSEN1-NTF [6] = target: T1, PSEN1-NTF; assay: Competition of photo-probe AR243 binding, HEK293T membrane preparations; details: HEK293T membranes, excess of competitor (100 µM)

**Q.** For `CC(C)CC(C(=O)O)c1cc(-c2ccc(C(F)(F)F)cc2)cc(-c2ccc(C(F)(F)F)cc2)c1` (centres unmarked) [JNJ-40418677], which IC50 (Aβ42 levels) is on record?
**A.** Its IC50 is 290 nM.

**Q.** `CC(C)C#CC(c1ccc(C2(C(F)(F)F)N=N2)cc1)N1CCC(CC(=O)O)CC1c1ccc(C(F)(F)F)cc1` (centres unmarked) [AR80] was tested. Which IC50 (Aβ42 levels) did it give?
**A.** The IC50 was 190 nM.

**Q.** How did the “Competition of AR243 binding to PSEN1-NTF” value (from here on “Competition of AR243 binding”) (PSEN1-NTF [1]) turn out when `COc1cc(-c2cc(C)c(NC(C)c3ccc(F)cc3)nn2)ccc1-n1cnc(C)c1` (centres unmarked) [Compound 1] was run?
**A.** The value was “reduced binding of the photo-probe as effectively as the acidic compound JNJ-40418677”.

**Q.** What about the IC50 (Aβ42 levels) of the same compound?
**A.** Its IC50 is 54 nM.

**Q.** With `COc1cc(/C=C2\CCCN([C@@H](C)c3ccc(F)cc3)C2=O)ccc1-n1cnc(C)c1` [E-2012] as the compound, how does the “Competition of AR243 binding” value (PSEN1-NTF [1]) read?
**A.** Its value is “more modest reductions; also recorded: only partially competed”.

**Q.** And the IC50 (Aβ42 levels)?
**A.** The IC50 was 53 nM.

**Q.** `O=C(O)CC1CCN(C(C#CCCCCOC(=O)CCCC[C@@H]2SC[C@@H]3NC(=O)N[C@@H]32)c2ccc(C3(C(F)(F)F)N=N3)cc2)C(c2ccc(C(F)(F)F)cc2)C1` (stereo partly drawn) [AR243, 2-(1-(7-((5-((3aS,4S,6aR)-2-oxohexahydro-1H-thieno[3,4-d]imidazol-4-yl)pentanoyl)oxy)-1-(4-(3(trifluoromethyl)-3H-diazirin-3-yl)phenyl)hept-2-yn-1-yl)-2-(4(trifluoromethyl)phenyl)piperidin-4-yl)acetic acid] was tested. Which “Photo-affinity labeling of PSEN1-CTF (Western blotting)” value (PSEN1-CTF [2]) did it give?
**A.** The value was “did not demonstrate binding”.

**Q.** And the “Photo-affinity labeling of APH-1 (Western blotting)” value (APH-1)?
**A.** The value was “did not demonstrate binding”.

**Q.** And the “Photo-affinity labeling of PEN-2 (Western blotting)” value (PEN-2)?
**A.** The value was “did not demonstrate binding”.

**Q.** What about the “Photo-affinity labeling of Nicastrin (Western blotting)” value (Nicastrin) of the same compound?
**A.** The value was “did not demonstrate binding”.

**Q.** And the “Photo-affinity labeling of endogenous PSEN1-NTF (Western blotting)” value (endogenous PSEN1-NTF)?
**A.** The value was “labeling of endogenous PSEN1-NFT”.

**Q.** And the “Photo-affinity labeling of PSEN1-CTF in living cells (Western blotting)” value (PSEN1-CTF [3])?
**A.** The value was “did not demonstrate binding”.

**Q.** And the “Photo-affinity labeling of PSEN1-NTF in living cells (Western blotting)” value (PSEN1-NTF [4])?
**A.** The value was “efficient labeling of PSEN1-NTF; also recorded: demonstrated binding of the photo-probe to PSEN1-NTF”.

**Q.** What about the “Photo-affinity labeling of PSEN1-CTF (Western blotting)” value (PSEN1-CTF [5]) of the same compound?
**A.** The value was “not PSEN1-CTF”.

**Q.** And the “Effect on Aβ38 levels” value (Aβ38 levels)?
**A.** Its value is “concomitant increase in Aβ38 levels”.

**Q.** And the IC50 (Aβ42 levels)?
**A.** Its IC50 is 290 nM.

**Q.** With `CCOc1cc(C)c(Nc2ccnc(N3CCN(c4ccc(OC)cc4)C(C)(C)C3)n2)cc1C(C)C` [Compound 2] as the compound, how does the “Competition of AR243 binding” value (PSEN1-NTF [1]) read?
**A.** The value was “only partially competed”.

**Q.** What about the “Competition of AR243 binding” value (PSEN1-NTF [1]; listed as compound 2) of the same compound?
**A.** Its value is “more modest reductions”.

**Q.** And the IC50 (Aβ42 levels)?
**A.** The IC50 was 77 nM.

**Q.** `CC(C)C#CC(c1ccc(Cl)cc1)N1CCC(CC(=O)O)CC1c1ccc(C(F)(F)F)cc1` (centres unmarked) [BB25] was tested. Which “Concentrations with dose-dependent cytotoxicity” value (N2a-ANPP cells) did it give?
**A.** Its value is > 10 µM.

**Q.** What about the “Competition of AR243 binding” value (PSEN1-NTF [1]) of the same compound?
**A.** Its value is “efficiently reduced the labeling signal”.

**Q.** What about the “Displacement of AR243 from PSEN1-NTF” value (PSEN1-NTF [6]) of the same compound?
**A.** The value was “caused displacement of the photo-probe”.

**Q.** And the IC50 (Aβ42 levels)?
**A.** Its IC50 is 87 nM.

Source: PMC3253113, “Presenilin Is the Molecular Target of Acidic γ-Secretase Modulators in Living Cells” (PLoS ONE, 2012)
